The values that follow come from US5955616A, “Pyrrolidine derivatives having phospholipase A2 inhibitory activity” (Shionogi & Co., Ltd., priority 1995, dated 1999).

SMILES strings stand for the structures.

The subject of assay [1] is Prostaglandin E2 production in human fibroblasts. The assay can be described thus: Inhibition of Production of Prostaglandin E2 in Human Fibroblasts (IL-1 stimulated). It is filed as cell-based. To be noted: Fibroblast, stimulation with IL-1, read-out: Inhibitory activity Against the Production of Prostaglandin E2 in Human Fibroblasts IC50. On the procedure:
Experiment 2 Inhibition of Production of Prostaglandin E2 in Human Fibroblasts
From this viewpoint, the compounds of the present invention were tested for the effect on the production of prostaglandin E2 by human fibroblasts under the stimulation with IL-1 according to the method of J. M. Dayer et al (CACHECTIN/TUMOR NECROSIS FACTOR STIMULATES COLLAGENASE AND PROSTAGLANDIN E2 PRODUCTION BY HUMAN SYNOVIAL CELLS AND DERMAL FIBROBLASTS; J. M. Dayer, B. Beutlerm and A. Cerami, J. Exp. Med., 162,2163-2168, 1985).

The target of assay [2] is T1, cPLA2 (Homo sapiens, UniProt P47712).
T1 sequence (P47712 1-749): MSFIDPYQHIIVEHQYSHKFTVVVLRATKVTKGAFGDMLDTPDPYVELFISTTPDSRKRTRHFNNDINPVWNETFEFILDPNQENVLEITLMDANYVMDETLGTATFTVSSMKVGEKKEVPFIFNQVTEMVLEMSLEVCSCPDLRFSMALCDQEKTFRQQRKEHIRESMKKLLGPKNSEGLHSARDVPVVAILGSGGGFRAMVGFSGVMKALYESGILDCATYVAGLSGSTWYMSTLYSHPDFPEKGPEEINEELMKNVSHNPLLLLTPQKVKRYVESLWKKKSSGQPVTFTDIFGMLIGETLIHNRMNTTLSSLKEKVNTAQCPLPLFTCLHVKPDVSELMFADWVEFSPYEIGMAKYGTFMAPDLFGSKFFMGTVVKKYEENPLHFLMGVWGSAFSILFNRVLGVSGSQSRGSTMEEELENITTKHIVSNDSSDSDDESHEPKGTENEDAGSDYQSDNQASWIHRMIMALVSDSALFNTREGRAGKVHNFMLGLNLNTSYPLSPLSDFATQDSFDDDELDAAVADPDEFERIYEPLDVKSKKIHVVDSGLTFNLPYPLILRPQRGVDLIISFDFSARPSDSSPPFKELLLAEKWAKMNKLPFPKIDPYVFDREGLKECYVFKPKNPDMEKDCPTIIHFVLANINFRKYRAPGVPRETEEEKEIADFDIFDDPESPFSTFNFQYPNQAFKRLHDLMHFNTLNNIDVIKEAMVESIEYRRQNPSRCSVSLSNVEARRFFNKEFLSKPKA
The experiment in a line: cPLA2 Inhibitory activity (release of radiolabelled fatty acid from liposomes). To be noted: 50 mM HEPES pH 7.4, 1 mM CaCl2, 2.5 μM radio-labeled phosphatidylcholine, 15 min at 37° C; read-out: cPLA2 Inhibition Activity IC50. It is filed as biochemical. The protocol: Experiment 1 cPLA2 Inhibitory activity
The compounds of the present invention was tested for the cPLA2 inhibitory activity by a method known in a literature (R. M. Kramer, E. F. Roberts, J. Manetta and J. E. Putnam, J. Biol. Chem., 268(8), 5268-5272 ([…])), as outlined below.
As a substrate, liposomes which contain 1-palmitoyl-2-[^14 C]-arachidonoyl-sn-glycero-3-phosphocholine and sn-1,2-dioleoylglycerol at the ratio of 2:1 and have treated ultrasonically were used. The substrate was added to a 50 mM HEPES buffer (pH 7.4) (200 μl) containing 1 mM CaCl2, 2 mM dithiothreitol, 150 mM NaCl, 0.1 mg/ml BSA so as to make the concentration of radio-labeled phosphatidylcholine 2.5 μM. To the solution was added a compound of the present invention in DMSO (10 μl) to obtain reaction solutions each containing the test compound at 250 μM, 50 μM, 10 μm, 2 μM, and 0.4 μM. The reaction was allowed to start by adding an enzyme (cPLA2) (4 ng) and continued for 15 min at 37° C.
The amount of fatty acids released by the reaction was measured on a liquid scintillation counter. Control was obtained by conducting the experiment in the same manner except that a compound of the present invention was not added. The inhibitory activity was expressed as percent (%) to the control value, which was used for the calculation of the concentration required for 50% inhibition (IC50, μM).

For `CC(=O)Nc1ccc(S(=O)(=O)N2C[C@@H](SCc3ccccc3)C[C@H]2C(=O)Nc2ccc(/C=C3\SC(=S)NC3=O)cc2)cc1` [Compound A-38], the half-inhibitory concentration (IC50) in assay [1] was 4.9 µM; in assay [2], 6.4 µM.
`CC(C)(C)c1ccc(S(=O)(=O)N2C[C@@H](SCc3ccccc3)C[C@H]2C(=O)Nc2ccc(/C=C3\SC(=S)NC3=O)cc2)cc1` [Compound A-39]: the IC50 in assay [1] is 6 µM; in assay [2] it was 6.2 µM.
For `CS[C@H]1C[C@@H](C(=O)Nc2ccc(/C=C3\SC(=O)NC3=O)cc2)N(S(=O)(=O)c2c(Cl)cccc2Cl)C1` [Compound A-40] the same measures were 7.7 µM and 15 µM.
`O=C1NC(=S)S/C1=C\c1ccc(NC(=O)[C@@H]2C[C@H](SCc3ccccc3)CN2S(=O)(=O)c2c(Cl)cccc2Cl)cc1` [Compound A-41]: the IC50 was determined as 14 µM in assay [1] and 3.4 µM in assay [2].
As for `O=C1NC(=O)/C(=C/c2ccc(NC(=O)[C@@H]3C[C@H](SCc4ccccc4)CN3S(=O)(=O)c3ccc(-c4ccccc4)cc3)cc2)S1` [Compound A-42], the 50% inhibitory concentration (IC50) worked out at 3.8 µM in assay [1] and 14 µM in assay [2].
`O=C1NC(=S)S/C1=C\c1ccc(NC(=O)[C@@H]2C[C@H](SCc3ccccc3)CN2S(=O)(=O)c2ccc(-c3ccccc3)cc2)cc1` [Compound A-43]: the IC50 in assay [1] came to 8.8 µM; in assay [2] it was 6.8 µM.
On the same counts, the results for `CS[C@H]1C[C@@H](C(=O)Nc2ccc(/C=C3\SC(=O)NC3=O)cc2)N(S(=O)(=O)c2ccc(-c3ccccc3)cc2)C1` [Compound A-44] are 1.5 µM and 7.4 µM.
With `CS[C@H]1C[C@@H](C(=O)Nc2ccc(/C=C3\SC(=S)NC3=O)cc2)N(S(=O)(=O)c2ccc(-c3ccccc3)cc2)C1` [Compound A-45], the IC50 in assay [1] amounted to 1.5 µM; in assay [2] it was 4.8 µM.
As to `COc1cc(CS[C@H]2C[C@@H](C(=O)Nc3ccc(/C=C4\SC(=O)NC4=O)cc3)N(S(=O)(=O)c3ccc(-c4ccccc4)cc3)C2)cc(OC)c1OC` [Compound A-46], the IC50 in assay [1] turned out to be 1.5 µM; in assay [2], 7 µM.
As for `O=C1NC(=S)S/C1=C\c1ccc(NC(=O)[C@@H]2C[C@H](SCc3ccccc3)CN2S(=O)(=O)c2ccc(Cc3ccccc3)cc2)cc1` [Compound A-48], the IC50 in assay [1] is 8.7 µM; in assay [2] it was 4.9 µM.
For `CN(C)c1cccc2c(S(=O)(=O)N3C[C@@H](SCc4ccccc4)C[C@H]3C(=O)Nc3ccc(/C=C4\SC(=S)NC4=O)cc3)cccc12` [Compound A-52] the same measures were 2.9 µM and 5.6 µM.
As for `O=C1NC(=S)S/C1=C\c1ccc(NC(=O)[C@@H]2C[C@H](SCc3ccccc3)CN2S(=O)(=O)Cc2ccc(Br)cc2)cc1` [Compound A-54], the IC50 in assay [1] turned out to be 1.1 µM; in assay [2], 3.4 µM.
As to `O=C1NC(=S)S/C1=C\c1ccc(NC(=O)[C@@H]2C[C@H](SCc3ccccc3)CN2S(=O)(=O)Cc2ccc(F)cc2)cc1` [Compound A-55], the values for the concentration for half-maximal inhibition (IC50) in assay [1] and in assay [2] were 1.1 µM and 3.4 µM, respectively.
On the same counts, the results for `N#CCCCOc1ccc(CS[C@H]2C[C@@H](C(=O)Nc3ccc(/C=C4\SC(=S)NC4=O)cc3)N(S(=O)(=O)Cc3ccc(Br)cc3)C2)cc1` [Compound A-56] are 0.93 µM and 1.9 µM.
On the same counts, the results for `O=C1NC(=S)S/C1=C\c1cn(NC(=O)[C@@H]2C[C@H](SCc3ccccc3)CN2C(=O)c2ccccc2)c2ccccc12` [Compound A-60] are 1.3 µM and 6.1 µM.
For `O=C1NC(=S)O/C1=C\c1cn(NC(=O)[C@@H]2C[C@H](SCc3ccccc3)CN2C(=O)c2ccccc2)c2ccccc12` [Compound A-61] the same measures were 10 µM and 1.6 µM.
`CC(C)(C)OC(=O)N1C[C@@H](SC(c2ccccc2)(c2ccccc2)c2ccccc2)C[C@H]1C(=O)Nc1ccc(/C=C2\OC(=S)NC2=O)cc1` [Compound A-62]: the IC50 in assay [1] stood at 2.2 µM; in assay [2], 4.3 µM.
On to `O=C1NC(=O)/C(=C/c2ccc(C(=O)NC[C@@H]3C[C@H](SC(c4ccccc4)(c4ccccc4)c4ccccc4)CN3C(=O)CCc3ccccc3)cc2)S1` [Compound B-1], for which the figures for the IC50 in assay [1] and in assay [2] were 7.5 µM and 0.82 µM, respectively.
For `COc1ccc(COC(=O)N2C[C@@H](SCc3cc(C(C)(C)C)c(OC)c(C(C)(C)C)c3)C[C@H]2CNC(=O)c2ccc(/C=C3\SC(=O)NC3=O)cc2)cc1` [Compound B-3], the results for the IC50 in assay [1] and in assay [2] were 2.1 µM and 1.2 µM, respectively.
On the same counts, the results for `O=C1NC(=O)/C(=C/c2ccc(C(=O)NC[C@@H]3C[C@H](SC(c4ccccc4)(c4ccccc4)c4ccccc4)CN3C(=O)OCc3ccc([N+](=O)[O-])cc3)cc2)S1` [Compound B-4] are 4.6 µM and 2.4 µM.
Regarding `COC(=O)c1ccc(CS[C@H]2C[C@@H](CNC(=O)c3ccc(/C=C4\SC(=S)NC4=O)cc3)N(C(=O)c3ccccc3)C2)cc1` [Compound B-5], the IC50 in assay [1] amounted to 2 µM; in assay [2] it was 2.2 µM.
As to `NC(=O)c1ccc(CS[C@H]2C[C@@H](CNC(=O)c3ccc(/C=C4\SC(=S)NC4=O)cc3)N(C(=O)c3ccccc3)C2)cc1` [Compound B-6], the IC50 in assay [1] was determined as 4.7 µM; in assay [2], 31 µM.
As to `O=C1NC(=O)C(=Cc2ccc(S(=O)(=O)NC[C@@H]3C[C@H](SCc4ccccc4)CN3C(=O)c3ccccc3)cc2)S1` [Compound B-7], the IC50 in assay [1] was found to be 3.6 µM; in assay [2], 9.7 µM.
On the same counts, the results for `CS[C@H]1C[C@@H](C(=O)Nc2ccccc2/C=C2\SC(=O)NC2=O)N(S(=O)(=O)c2ccc(-c3ccccc3)cc2)C1` [Compound C-1] are 6.1 µM and 30 µM.
For the compound `COC(=O)c1cc(C=C2SC(=O)NC2=O)cc(NC(=O)C2CC(OC(c3ccccc3)c3ccccc3)CN2C(=O)c2ccccc2)c1` (stereo not shown) [Compound C-4], the values for the 50% inhibitory concentration (IC50) in assay [1] and in assay [2] were 2 µM and 3.2 µM, respectively.
For `COC(=O)CCc1cc(C=C2SC(=O)NC2=O)cc(NC(=O)C2CC(OC(c3ccccc3)c3ccccc3)CN2C(=O)c2ccccc2)c1` (stereo not shown) [Compound C-5], the results for the IC50 in assay [1] and in assay [2] were 1.2 µM and 9.8 µM, respectively.
On the same counts, the results for `O=C1NC(=O)C(=Cc2cc(CCCO)cc(NC(=O)C3CC(OC(c4ccccc4)c4ccccc4)CN3C(=O)c3ccccc3)c2)S1` (stereo not shown) [Compound C-6] are 2.3 µM and 13 µM.
For `CS[C@H]1C[C@@H](C(=O)Nc2ccc(C(CO)=C3SC(=O)NC3=O)cc2)N(S(=O)(=O)c2ccc(-c3ccccc3)cc2)C1` [Compound D-1] the same measures were 3.6 µM and 22 µM.
On the same counts, the results for `O=C1NC(=O)C(=C(CO)c2ccc(NC(=O)[C@@H]3C[C@H](SCc4ccccc4)CN3S(=O)(=O)c3ccc(-c4ccccc4)cc3)cc2)S1` [Compound D-2] are 5.7 µM and 7 µM.
As to `O=C1NC(=O)/C(=C/c2ccc(C=CC[C@@H]3C[C@H](SC(c4ccccc4)(c4ccccc4)c4ccccc4)CN3C(=O)CCc3ccccc3)cc2)S1` [Compound E-2], the IC50 in assay [1] was 6 µM; in assay [2], 0.46 µM.
As for `O=C1NC(=O)/C(=C/c2ccc(CCC[C@@H]3C[C@H](SC(c4ccccc4)c4ccccc4)CN3C(=O)CCc3ccccc3)cc2)S1` [Compound E-4], the IC50 in assay [1] worked out at 1.9 µM; in assay [2], 3.7 µM.
As to `O=C1NC(=O)/C(=C/c2ccc(C(=O)NC[C@@H]3C[C@H](OCc4ccc(F)cc4F)CN3C(=O)c3ccc(Cn4sccc4=O)cc3)cc2)S1` [Compound H-8], the concentration for half-maximal inhibition (IC50) in assay [1] came to 9.9 µM; in assay [2] it was 3.2 µM.

The term IC50 denotes the concentration that gives 50% inhibition.
